The structures appear in SMILES notation. ≈ marks a conversion by molar mass, not a printed value. A value given as a limit tells only on which side of the number the result lay.

Holding throughout (format): functional
One test has as its system Rhodococcus fascians. As to the kind of experiment: Antibacterial activity against Rhodococcus fascians after 24 hrs by MTT based microdilution assay. The following applies: Rhodococcoides fascians. A general note: Tetrazolium dyes change colour on reduction, which living cells bring about.
For test [1], the system named is Mycolicibacterium smegmatis. In words: Antibacterial activity against Mycobacterium smegmatis after 48 hrs by MTT based microdilution assay.
A further test concerns Staphylococcus aureus. In words: Antibacterial activity against Staphylococcus aureus after 24 hrs by MTT based microdilution assay.
The next test deals with Pseudomonas aeruginosa. As to the kind of experiment: Antibacterial activity against Pseudomonas aeruginosa after 24 hrs by MTT based microdilution assay.
Another test deals with Escherichia coli. In words: Antibacterial activity against Escherichia coli after 24 hrs by MTT based microdilution assay.

In the case of `CN[C@@H]1[C@@H](O[C@H]2O[C@H](CO)[C@@H](N)[C@H](O)[C@H]2O)O[C@H]2C[C@@H](N)[C@@H](O[C@H]3[C@H](O)[C@@H](O)[C@H](N)C[C@@H]3N)O[C@@H]2[C@@H]1O`, the MIC against Rhodococcus fascians was 50 mg/L (≈ 92.7 µM); in test [1], 2.5 mg/L (≈ 4.63 µM); in the test on Staphylococcus aureus, 30 mg/L (≈ 55.6 µM); against Pseudomonas aeruginosa it was 50 mg/L (≈ 92.7 µM); in the test with Escherichia coli, above 50 mg/L.
In the case of `COc1ccc(C2COc3c(C/C=C(\C)CCC=C(C)C)c(O)cc(O)c3C2=O)c(O)c1O` (racemic), the MIC was 12.5 mg/L (≈ 27.5 µM) in the test with Rhodococcus fascians; 5 mg/L (≈ 11 µM) in test [1]; 5 mg/L (≈ 11 µM) against Staphylococcus aureus; above 50 mg/L against Pseudomonas aeruginosa; above 50 mg/L in the test on Escherichia coli.
With `CC1(C)S[C@@H]2[C@H](NC(=O)[C@H](N)c3ccccc3)C(=O)N2[C@H]1C(=O)O` [AMPICILLIN], the MIC against Rhodococcus fascians is 20 mg/L (≈ 57.2 µM); in test [1], above 50 mg/L; in the test on Staphylococcus aureus, above 50 mg/L; against Pseudomonas aeruginosa it was below 5 mg/L; in the test on Escherichia coli, below 5 mg/L.
`COc1ccc(C2COc3cc(O)cc(O)c3C2=O)c(O)c1O` (racemic): the minimum inhibitory concentration (MIC) (against Rhodococcus fascians; in test [1]; against Staphylococcus aureus; in the test on Pseudomonas aeruginosa; against Escherichia coli) was above 50 mg/L throughout.
Turning to `COc1ccc(C2COc3c(C/C=C(/C)CCC=C(C)C)c(O)cc(O)c3C2=O)c(O)c1O` (racemic), the MIC was 12.5 mg/L (≈ 27.5 µM) against Rhodococcus fascians; 5 mg/L (≈ 11 µM) in test [1]; 5 mg/L (≈ 11 µM) in the test on Staphylococcus aureus; above 50 mg/L with Pseudomonas aeruginosa; above 50 mg/L in the test on Escherichia coli.

By MIC is commonly meant the least concentration at which growth counts as inhibited.

Values taken from ChEMBL document CHEMBL3867453, “Total Synthesis of (±)-Isoperbergins and Correction of the Chemical Structure of Perbergin” (2016).
